Measurements as given in PubChem BioAssay AID258 (DTP/NCI, 2004).
Toxic doses and inconclusive results are not listed.

System: CD2F1 mice, L1210 leukemia sc, survival T/C
Test: NCI In Vivo Anticancer Drug Screen. Data for tumor model L1210 Leukemia (subcutaneous) in CD2F1 (CDF1) mice
Conditions: endpoint: median survival time, higher = longer survival
Outline: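 Transplantable tumor-bearing mice were treated with compound; survival or tumor size measured and expressed as treated-group value (T) divided by vehicle-treated control value (C).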

[1] = dose: 8.4 mg/kg/injection, schedule: Q01DX Z (sc), vehicle: water
[2] = dose: 14.0 mg/kg/injection, schedule: Q01DX Z (sc), vehicle: water

## CS(=O)(=O)CS(=O)(=O)OCCCl
dose: 1.5 mg/kg/injection, schedule: Q03HX024 (ip), vehicle: other
  T/C: 106 % of control
dose: 3.1 mg/kg/injection, schedule: Q03HX008 (ip), vehicle: other
  T/C: 109 % of control
dose: 3.1 mg/kg/injection, schedule: Q03HX024 (ip), vehicle: other
  T/C: 113 % of control
dose: 6.2 mg/kg/injection, schedule: Q01DX005 (iv), vehicle: other
  T/C: 104 % of control
dose: 6.2 mg/kg/injection, schedule: Q03HX008 (ip), vehicle: other
  T/C: 115 % of control
dose: 6.2 mg/kg/injection, schedule: Q03HX024 (ip), vehicle: other
  T/C: 154 % of control
dose: 11.8 mg/kg/injection, schedule: Q03HX008 (ip), vehicle: dextrose
  T/C: 187 % of control
dose: 12.5 mg/kg/injection, schedule: Q01DX001 (iv), vehicle: other
  T/C: 106 % of control
dose: 12.5 mg/kg/injection, schedule: Q01DX005 (iv), vehicle: other
  T/C: 114 % of control
dose: 12.5 mg/kg/injection, schedule: Q01DX009 (ip), vehicle: other
  T/C: 122 % of control
dose: 12.5 mg/kg/injection, schedule: Q01DX009 (ip), vehicle: saline with Tween-80
  T/C: 123 % of control
dose: 12.5 mg/kg/injection, schedule: Q03HX008 (ip), vehicle: other
  T/C: 155 % of control
dose: 12.5 mg/kg/injection, schedule: Q03HX024 (ip), vehicle: other
  T/C: 240 % of control
dose: 12.5 mg/kg/injection, schedule: Q04DX003 (ip), vehicle: other
  T/C: 112 % of control
dose: 16.8 mg/kg/injection, schedule: Q03HX008 (ip), vehicle: dextrose
  T/C: 217 % of control
dose: 24.0 mg/kg/injection, schedule: Q01DX009 (ip), vehicle: dextrose
  T/C: 168 % of control
dose: 24.0 mg/kg/injection, schedule: Q03HX008 (ip), vehicle: dextrose
  T/C: 600 % of control
dose: 25.0 mg/kg/injection, schedule: Q01DX001 (ip), vehicle: other
  T/C: 111 % of control
dose: 25.0 mg/kg/injection, schedule: Q01DX001 (iv), vehicle: other
  T/C: 119 % of control
dose: 25.0 mg/kg/injection, schedule: Q01DX009 (ip), vehicle: other
  T/C: 176 % of control
dose: 25.0 mg/kg/injection, schedule: Q01DX009 (ip), vehicle: saline with Tween-80
  T/C: 154 % of control
dose: 25.0 mg/kg/injection, schedule: Q03HX008 (ip), vehicle: other
  T/C: 618 % of control
dose: 25.0 mg/kg/injection, schedule: Q03HX024 (ip), vehicle: other
  T/C: 618 % of control
dose: 25.0 mg/kg/injection, schedule: Q04DX003 (ip), vehicle: other
  T/C: 124 % of control
dose: 34.3 mg/kg/injection, schedule: Q01DX005 (ip), vehicle: dextrose
  T/C: 183 % of control
dose: 34.3 mg/kg/injection, schedule: Q01DX009 (ip), vehicle: dextrose
  T/C: 204 % of control
dose: 34.3 mg/kg/injection, schedule: Q03HX008 (ip), vehicle: dextrose
  T/C: 600 % of control
dose: 49.0 mg/kg/injection, schedule: Q01DX001 (ip), vehicle: dextrose
  T/C: 153 % of control
dose: 49.0 mg/kg/injection, schedule: Q01DX002 (ip), vehicle: dextrose
  T/C: 180 % of control
dose: 49.0 mg/kg/injection, schedule: Q01DX005 (ip), vehicle: dextrose
  T/C: 238 % of control
dose: 49.0 mg/kg/injection, schedule: Q01DX009 (ip), vehicle: dextrose
  T/C: 270 % of control
dose: 49.0 mg/kg/injection, schedule: Q03HX008 (ip), vehicle: dextrose
  T/C: 600 % of control
dose: 50.0 mg/kg/injection, schedule: Q01DX001 (oral), vehicle: other
  T/C: 107 % of control
dose: 50.0 mg/kg/injection, schedule: Q01DX005 (ip), vehicle: other
  T/C: 207 % of control
dose: 50.0 mg/kg/injection, schedule: Q01DX005 (iv), vehicle: other
  T/C: 226 % of control
dose: 50.0 mg/kg/injection, schedule: Q01DX009 (ip), vehicle: other
  T/C: 317 % of control
dose: 50.0 mg/kg/injection, schedule: Q01DX009 (ip), vehicle: saline with Tween-80
  T/C: 242 % of control
dose: 50.0 mg/kg/injection, schedule: Q01DX009 (oral), vehicle: other
  T/C: 168 % of control
dose: 50.0 mg/kg/injection, schedule: Q03HX008 (ip), vehicle: other
  T/C: 103 % of control
dose: 50.0 mg/kg/injection, schedule: Q04DX003 (ip), vehicle: other
  T/C: 209 % of control
dose: 70.0 mg/kg/injection, schedule: Q01DX001 (ip), vehicle: dextrose
  T/C: 180 % of control
dose: 70.0 mg/kg/injection, schedule: Q01DX002 (ip), vehicle: dextrose
  T/C: 290 % of control
dose: 70.0 mg/kg/injection, schedule: Q01DX005 (ip), vehicle: dextrose
  T/C: 600 % of control
dose: 70.0 mg/kg/injection, schedule: Q01DX009 (ip), vehicle: dextrose
  T/C: 600 % of control
dose: 100.0 mg/kg/injection, schedule: Q01DX001 (ip), vehicle: dextrose
  T/C: 240 % of control
dose: 100.0 mg/kg/injection, schedule: Q01DX001 (ip), vehicle: other
  T/C: 618 % of control
dose: 100.0 mg/kg/injection, schedule: Q01DX001 (iv), vehicle: other
  T/C: 618 % of control
dose: 100.0 mg/kg/injection, schedule: Q01DX002 (ip), vehicle: dextrose
  T/C: 600 % of control
dose: 100.0 mg/kg/injection, schedule: Q01DX005 (ip), vehicle: dextrose
  T/C: 600 % of control
dose: 100.0 mg/kg/injection, schedule: Q01DX005 (ip), vehicle: other
  T/C: 618 % of control
dose: 100.0 mg/kg/injection, schedule: Q01DX005 (iv), vehicle: other
  T/C: 618 % of control
dose: 100.0 mg/kg/injection, schedule: Q01DX009 (ip), vehicle: dextrose
  T/C: 600 % of control
dose: 100.0 mg/kg/injection, schedule: Q01DX009 (ip), vehicle: other
  T/C: 216 % of control
dose: 100.0 mg/kg/injection, schedule: Q01DX009 (oral), vehicle: other
  T/C: 240 % of control
dose: 100.0 mg/kg/injection, schedule: Q04DX003 (ip), vehicle: other
  T/C: 353 % of control
dose: 142.9 mg/kg/injection, schedule: Q01DX001 (ip), vehicle: dextrose
  T/C: 600 % of control
dose: 142.9 mg/kg/injection, schedule: Q01DX002 (ip), vehicle: dextrose
  T/C: 600 % of control
dose: 142.9 mg/kg/injection, schedule: Q01DX005 (ip), vehicle: dextrose
  T/C: 101 % of control
dose: 200.0 mg/kg/injection, schedule: Q01DX001 (oral), vehicle: other
  T/C: 618 % of control
dose: 200.0 mg/kg/injection, schedule: Q01DX009 (oral), vehicle: other
  T/C: 384 % of control

## Oc1cc(CN(CCCl)CCCl)c(O)cc1CN(CCCl)CCCl
dose: 23.4 mg/kg/injection, schedule: Q01DX Z (sc), vehicle: methylcellulose (MC)
  T/C: 105 % of control
dose: 38.9 mg/kg/injection, schedule: Q01DX Z (sc), vehicle: methylcellulose (MC)
  T/C: 110 % of control
dose: 64.8 mg/kg/injection, schedule: Q01DX Z (sc), vehicle: methylcellulose (MC)
  T/C: 115 % of control
dose: 108.0 mg/kg/injection, schedule: Q01DX Z (sc), vehicle: methylcellulose (MC)
  T/C: 115 % of control
dose: 180.0 mg/kg/injection, schedule: Q01DX Z (sc), vehicle: methylcellulose (MC)
  T/C: 105 % of control

## N=C(N)Cc1ccc(NC(=O)c2ccc(C(=O)Nc3ccc(CC(=N)N)cc3)cc2)cc1
[1]
  T/C: 110 % of control
[2]
  T/C: 105 % of control
dose: 23.0 mg/kg/injection, schedule: Q01DX Z (sc), vehicle: water
  T/C: 115 % of control
dose: 39.0 mg/kg/injection, schedule: Q01DX Z (sc), vehicle: water
  T/C: 110 % of control
dose: 65.0 mg/kg/injection, schedule: Q01DX Z (sc), vehicle: water
  T/C: 115 % of control

## CC1CN=C(c2ccc(NC(=O)c3ccc(C(=O)Nc4ccc(C5=NCC(C)N5)cc4)cc3)cc2)N1 (stereo not drawn)
dose: 1.8 mg/kg/injection, schedule: Q01DX Z (sc), vehicle: water
  T/C: 115 % of control
dose: 3.0 mg/kg/injection, schedule: Q01DX Z (sc), vehicle: water
  T/C: 155 % of control
dose: 5.0 mg/kg/injection, schedule: Q01DX Z (sc), vehicle: water
  T/C: 240 % of control
[1]
  T/C: 255 % of control
[2]
  T/C: 230 % of control

## CSCS(=O)C[C@H](CO)NC(=O)/C=C/c1c(C)[nH]c(=O)[nH]c1=O (stereo partly drawn)
dose: 1.08 mg/kg/injection, schedule: Q01DX Z (sc), vehicle: saline
  T/C: 110 % of control
dose: 1.8 mg/kg/injection, schedule: Q01DX Z (sc), vehicle: saline
  T/C: 110 % of control
dose: 3.0 mg/kg/injection, schedule: Q01DX Z (sc), vehicle: saline
  T/C: 100 % of control
dose: 5.0 mg/kg/injection, schedule: Q01DX Z (sc), vehicle: saline
  T/C: 90 % of control

## Nc1c(/C=C/c2cc3cc(C4=NCCN4)ccc3o2)[nH]c2cc(C3=NCCN3)ccc12
dose: 3.12 mg/kg/injection, schedule: Q01DX009 (ip), vehicle: Klucel (hydroxypropylcellulose) (HPC)
  T/C: 100 % of control
dose: 6.25 mg/kg/injection, schedule: Q01DX009 (ip), vehicle: Klucel (hydroxypropylcellulose) (HPC)
  T/C: 100 % of control
dose: 12.5 mg/kg/injection, schedule: Q01DX009 (ip), vehicle: Klucel (hydroxypropylcellulose) (HPC)
  T/C: 96 % of control
dose: 25.0 mg/kg/injection, schedule: Q01DX009 (ip), vehicle: Klucel (hydroxypropylcellulose) (HPC)
  T/C: 106 % of control
